Laboratory results from paper PMC6905855, “Agonist-specific voltage-dependent gating of lysosomal two-pore Na^+ channels” (eLife, 2019).
Values joined by “and” are separate entries in the source; they are usually repeats but may differ in a detail not shown here. Equal entries are not always repeated.

Assays:
hTPC1 = biological target: T1, hTPC1 (Homo sapiens, UniProt Q9ULQ1); test: Whole-endolysosome recordings of ITPC1; format: biochemical
T1 construct: expressed in transfected cells; host or cells: Cos1

hTPC2 = biological target: T2, hTPC2 (Homo sapiens, UniProt Q8NHX9); test: Whole-endolysosome recordings of ITPC2; format: biochemical; details: for Normalized I-TPC2: WT TPC2
T2 construct: expressed in transfected cells; host or cells: Cos1 and HEK293
T2 sequence (Q8NHX9 whole entry): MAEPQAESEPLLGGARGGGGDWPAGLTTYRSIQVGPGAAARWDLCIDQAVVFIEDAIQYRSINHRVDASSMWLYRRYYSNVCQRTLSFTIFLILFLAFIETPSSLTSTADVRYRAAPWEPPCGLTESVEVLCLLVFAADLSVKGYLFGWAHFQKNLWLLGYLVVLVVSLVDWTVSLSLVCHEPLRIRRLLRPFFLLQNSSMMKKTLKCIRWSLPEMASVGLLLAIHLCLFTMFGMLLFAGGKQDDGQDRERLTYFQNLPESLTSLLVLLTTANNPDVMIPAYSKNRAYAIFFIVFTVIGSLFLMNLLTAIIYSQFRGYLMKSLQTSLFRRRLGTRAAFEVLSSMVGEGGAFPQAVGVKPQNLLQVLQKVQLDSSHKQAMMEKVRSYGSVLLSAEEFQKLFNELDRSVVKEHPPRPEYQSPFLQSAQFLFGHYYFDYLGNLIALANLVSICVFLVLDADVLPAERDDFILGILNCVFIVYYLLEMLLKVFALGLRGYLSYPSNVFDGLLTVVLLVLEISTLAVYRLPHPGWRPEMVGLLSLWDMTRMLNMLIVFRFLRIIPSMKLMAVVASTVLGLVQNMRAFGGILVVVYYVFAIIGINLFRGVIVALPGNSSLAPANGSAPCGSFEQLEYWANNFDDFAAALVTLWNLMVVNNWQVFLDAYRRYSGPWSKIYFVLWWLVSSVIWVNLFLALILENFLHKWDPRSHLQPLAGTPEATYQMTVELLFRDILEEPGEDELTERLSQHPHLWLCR

[1] = biological target: T3, surface-expressing mutant TPC2 channel (TPC2^LL/AA) in HEK293 cells (Homo sapiens, UniProt Q8NHX9, L11A/L12A); test: Whole-cell recordings of ITPC2-LL/AA; format: cell-based
T3 construct: expressed in transfected cells; host or cells: HEK293
T3 sequence (Q8NHX9 whole entry L11A/L12A): as the sequence (Q8NHX9 whole entry) above, with L11A, L12A counted along it
Outline: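 HEK293 cells transiently expressing EGFP-tagged human TPC2 L11A/L12A, a plasma-membrane-targeted mutant, recorded 24–36 h post-transfection. Whole-cell patch clamp with fast perfusion of bath solutions; currents digitized at 10 kHz and filtered at 2 kHz.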

SMILES: CN(C)CCCN1c2ccccc2CCc2ccc(Cl)cc21 [LyNa-VA1.1, Clomipramine]
- effect on whole-endolysosome ITPC1 (in words) (hTPC1): profound suppression of outward currents at potentials positive to Erev (~0 mV), and a substantial enhancement of inward currents negative to Erev
- Dose-dependent activation of TPC1 (normalized ITPC1) (hTPC1; 3 µM, individual patches): 0.0359 and 0.105 and 0
- Dose-dependent activation of TPC1 (normalized ITPC1) (hTPC1; 3 µM, mean): 0.04696
- Dose-dependent activation of TPC1 (normalized ITPC1) (hTPC1; 10 µM, individual patches): 0.1722 and 0.1955 and 0.1208
- Dose-dependent activation of TPC1 (normalized ITPC1) (hTPC1; 10 µM, mean): 0.1629
- Dose-dependent activation of TPC1 (normalized ITPC1) (hTPC1; 30 µM, individual patches): 0.6041 and 0.3178 and 0.3982
- Dose-dependent activation of TPC1 (normalized ITPC1) (hTPC1; 30 µM, mean): 0.44
- Dose-dependent activation of TPC1 (normalized ITPC1) (hTPC1; 100 µM, individual patches): 1 and 0.7031 and 0.8638
- Dose-dependent activation of TPC1 (normalized ITPC1) (hTPC1; 100 µM, mean): 0.8556
- Dose-dependent activation of TPC1 (normalized ITPC1) (hTPC1; 300 µM, individual patches): 0.8072 and 1 (2×)
- Dose-dependent activation of TPC1 (normalized ITPC1) (hTPC1; 300 µM, mean): 0.9357
- τ of ITPC1 step currents (hTPC1; hTPC1, LyNa-VA1.1 (100 µM), Figure 4A): 155 ± 1 ms
- V1/2 of ITPC1 G-V curve (hTPC1; hTPC1, LyNa-VA1.1 (100 µM), Figure 4F): -30 ± 5 mV
- τ of ITPC1 tail currents (hTPC1; hTPC1, tail currents at −120 mV, LyNa-VA1.1 (100 µM), Figure 4E): 203 ± 2 ms
- EC50 (hTPC1; whole-endolysosome, n = 3 patches, read-out: EC50, activation of TPC1): 27 ± 2 µM
- combined effect with PI(3,5)P2 on whole-endolysosome ITPC2 (in words) (hTPC2; PI(3,5)P2 50 nM): synergistic effects
- EC50 (hTPC2; WT +PI(3,5)P2 (50 nM), whole-endolysosome, Figure 3C): 12 ± 7 µM
- EC50 (hTPC2; WT -PI(3,5)P2, whole-endolysosome, Figure 3C): 48 ± 16 µM
- Normalized I-TPC2 (hTPC2; 1 µM + PI(3,5)P2 50nM, individual patches): 0.3375 and 0.1568 and 0.08956
- Normalized I-TPC2 (hTPC2; 1 µM + PI(3,5)P2 50nM, mean): 0.1946
- Normalized I-TPC2 (hTPC2; 3 µM + PI(3,5)P2 50nM, individual patches): 0.35 and 0.3063 and 0.1
- Normalized I-TPC2 (hTPC2; 3 µM + PI(3,5)P2 50nM, mean): 0.2521
- Normalized I-TPC2 (hTPC2; 10 µM + PI(3,5)P2 50nM, individual patches): 0.5558 and 0.7252 and 0.2889
- Normalized I-TPC2 (hTPC2; 10 µM + PI(3,5)P2 50nM, mean): 0.5233
- Normalized I-TPC2 (hTPC2; 10 µM, no PI(3,5)P2, individual patches): 0.08625 and 0.1427 and 0.1845
- Normalized I-TPC2 (hTPC2; 10 µM, no PI(3,5)P2, mean): 0.1378
- Normalized I-TPC2 (hTPC2; 20 µM, no PI(3,5)P2, individual patches): 0.2419 and 0.1804 and 0.1168
- Normalized I-TPC2 (hTPC2; 20 µM, no PI(3,5)P2, mean): 0.1797
- Normalized I-TPC2 (hTPC2; 30 µM + PI(3,5)P2 50nM, individual patches): 1 (2×) and 0.3222
- Normalized I-TPC2 (hTPC2; 30 µM + PI(3,5)P2 50nM, mean): 0.7741
- Normalized I-TPC2 (hTPC2; 50 µM, no PI(3,5)P2, individual patches): 0.8473 and 0.4535 and 0.5893
- Normalized I-TPC2 (hTPC2; 50 µM, no PI(3,5)P2, mean): 0.63
- Normalized I-TPC2 (hTPC2; 100 µM + PI(3,5)P2 50nM, individual patches): 0.7417 and 0.7423 and 1
- Normalized I-TPC2 (hTPC2; 100 µM + PI(3,5)P2 50nM, mean): 0.828
- Normalized I-TPC2 (hTPC2; 100 µM, no PI(3,5)P2, individual patches): 1 (2×) and 0.99
- Normalized I-TPC2 (hTPC2; 100 µM, no PI(3,5)P2, mean): 0.9967
- Normalized I-TPC2 (hTPC2; 200 µM, no PI(3,5)P2, individual patches): 0.7106 and 0.507 and 0.6545
- Normalized I-TPC2 (hTPC2; 200 µM, no PI(3,5)P2, mean): 0.624
- EC50 (hTPC2; WT+pip2 (50 nM), MEAN (Fig. 3D)): 14.6 µM
- EC50 (hTPC2; WT+pip2 (50 nM), individual patches (Fig. 3D)): 27 µM and 12.6 µM and 4.3 µM
- EC50 (hTPC2; WT-pip2, MEAN (Fig. 3D)): 45.1 µM
- EC50 (hTPC2; WT-pip2, individual patches (Fig. 3D)): 56 µM and 48.4 µM and 30.8 µM
- ITPC2 (hTPC2; whole endolysosome recordings with 100 µM of LyNa-VAs at −120 mV): 945 ± 111 pA
- activation of whole-cell ITPC2-LL/AA (in words) [1]: activated
- current, whole-cell ITPC2-LL/AA [1]: 1835.6 pA and 1904.2 pA and 1632.7 pA and 1290 pA and 1968.1 pA
- EC50 ([1]; whole-cell recordings at −140 mV, TPC2^LL/AA-transfected HEK293 cells, read-out: EC50): 43 ± 2 µM
